Test results published in patent publication US20250025417A1, “ORAL ABIRATERONE FORMULATIONS” (PROPELLA THERAPEUTICS, INC., priority 2021, published 2025).

How the values were obtained:
[1] = Solubility of abiraterone decanoate in lipid-based vehicles at 25° C. (HPLC); assay type: physicochemical; conditions: for Solubility (mg/g) at 25° C.: Day 13 results; for Solb (mg/g) at 25° C.: average of day 2 and day 7
Protocol: In this example, solubility of abiraterone decanoate in the following four vehicles were tested. Each vehicle has a distinctive base, namely, medium chain trigylceride (MCT)/polyoxylglyceride, long chain (LC) monodiglyceride, and two propylene glycol (PG) monoesters, caprylic and lauryl. • Vehicle 1: MCT/Polyoxylglyceride based: 20% Kolliphor RH40/14% Plurol Oleique CC 497/33% Labrafil 1944 CS/33% Labrafac Lipophile WL 1349 • Vehicle 2: PG Monoester based: 20% Kolliphor RH 40/14% Plurol Oleique CC 497/66% Lauroglycol 90 • Vehicle 3: PG Monoester based: 20% Kolliphor RH40/14% Plurol Oleique CC 497/66% Capmul PG-8 • Vehicle 4: LC Monodiglyceride based: 20% Kolliphor RH40/14% Plurol Oleique CC 497/66% Maisine CC
Solubilities of abiraterone decanoate in different vehicles were tested following the procedure below: • Prepare 5 g of each vehicle by weight • In a 4-mL vial, weigh about 350 mg drug and then add 2 mL of vehicle • Sonicate and vortex all samples, then place on a rotator at 25° C. • At the end of the day check the samples to see if the drug completely dissolved. If so, use wax paper to transfer additional drug, record the additional amount added. • After 2-3 days, remove about 0.5 mL from each sample and filter using a microcentrifuge. […] Results were obtained for samples after 2 days and after 7 days.
The vehicles being tested have the following compositions: • Vehicle 1 (see Example 2): 20% Kolliphor RH40/14% Plurol Oleique CC 497/33% Labrafil 1944 CS/33% Labrafac Lipophile WL 1349, used as a control. • Vehicle 5: 20% Kolliphor RH40/14% Plurol Oleique CC 497/33% Maisine CC/33% Labrafac Lipophile WL 1349* • Vehicle 6: 20% Kolliphor RH40/14% Plurol Oleique CC 497/16% Labrafil 1944 CS/30% Maisine CC/20% Labrafac Lipophile WL 1349 • Vehicle 7: 20% Kolliphor RH40/14% Plurol Oleique CC 497/16% Labrafil 1944 CS/30% Capmul PG-8/20% Labrafac Lipophile WL 1349 • Vehicle 8: 20% Kolliphor RH40/14% Plurol Oleique CC 497/16% Labrafil 1944 CS/30% Capmul PG-12/20% Labrafac Lipophile WL 1349 • Vehicle 9: 20% Kolliphor RH40/14% Plurol Oleique CC 497/16% Labrafil 1944 CS/30% Labrafil M 2130 CS/20% Labrafac Lipophile WL 1349
The procedures for preparing samples and solubility testing are similar to those described in Example 2.

[2] = Forms A, B, and C

solubility in lipid based vehicles (in words) ([1]; Examples 2 and 3): good solubilities | Solubility (mg/g) at 25° C. ([1]; Vehicle 1 (control)): 101.1 mg/g | Solb (mg/g) at 25° C. ([1]; Vehicle 1: 20% Kolliphor RH40/14% Plurol Oleique CC 497/33% Labrafil 1944 CS/33% Labrafac Lipophile WL 1349): 88.5 mg/g | Solb (mg/g) at 25° C. ([1]; Vehicle 2: 20% Kolliphor RH 40/14% Plurol Oleique CC 497/66% Lauroglycol 90): 143.9 mg/g | Solb (mg/g) at 25° C. ([1]; Vehicle 3: 20% Kolliphor RH40/14% Plurol Oleique CC 497/66% Capmul PG-8): 149.2 mg/g | Solb (mg/g) at 25° C. ([1]; Vehicle 4: 20% Kolliphor RH40/14% Plurol Oleique CC 497/66% Maisine CC): 110.2 mg/g | Solubility (mg/g) at 25° C. ([1]; Vehicle 5: 20% Kolliphor RH40/14% Plurol Oleique CC 497/33% Maisine CC/33% Labrafac Lipophile WL 1349): 111.5 mg/g | Solubility (mg/g) at 25° C. ([1]; Vehicle 6: 20% Kolliphor RH40/14% Plurol Oleique CC 497/16% Labrafil 1944 CS/30% Maisine CC/20% Labrafac Lipophile WL 1349): 114.3 mg/g | Solubility (mg/g) at 25° C. ([1]; Vehicle 7: 20% Kolliphor RH40/14% Plurol Oleique CC 497/16% Labrafil 1944 CS/30% Capmul PG-8/20% Labrafac Lipophile WL 1349): 141.2 mg/g | Solubility (mg/g) at 25° C. ([1]; Vehicle 8: 20% Kolliphor RH40/14% Plurol Oleique CC 497/16% Labrafil 1944 CS/30% Capmul PG-12/20% Labrafac Lipophile WL 1349): 132.9 mg/g | DVS Max H2O uptake (wt %) [2]: N/A - non-hygroscopic
Structure (SMILES): CCCCCCCCCC(=O)O[C@H]1CC[C@@]2(C)C(=CC[C@@H]3[C@@H]2CC[C@]2(C)C(c4cccnc4)=CC[C@@H]32)C1 [abiraterone decanoate]
